Measurements from US20040110718A1, “Anti-HCV nucleoside derivatives” (priority 2000, published 2004).
Read-outs that look alike come from different tables or passages of the source.

Columns and labels:
[1] = test system: HCV replicon RNA replication; assay: HCV replicon assay (quantification of replicon RNA, Northern blot / Taqman kinetic PCR); type: cell-based; settings: Hepatitis C virus, Huh-7, 72 h
Procedure: Assay Method: The activity of the compounds was assayed using an adaptation of the method reported by Lohmann et al [V. Lohmann et al., Science, 1999, 285, 110-113].
The HCV replicon-containing cell line is used for the identification of small molecules that are able to inhibit the replication of the replicon RNA. Since the replicon RNA replication mimics the replication of the HCV RNA in infected hepatocytes, it is believed that those small molecules that have the above property are interesting for further development as anti-HCV drugs.
The inhibition of the HCV replicon RNA replication will lead to a decrease of the replicon RNA in the cell, which can be measured using a method that specifically quantifies this RNA.
Northern blot: One method for quantification of this RNA uses the standard Northern blot known to any person skilled in the art.
Kinetic PCR: A second assay for the quantification of replicon RNA is based on the amplification of the replicon RNA that remains in the cell, after incubation of the cells with a proper concentration of the small molecules. This method involves the reverse transcription of the replicon RNA to the corresponding complementary DNA (cDNA), followed by amplification of the cDNA using the Taqman Kinetic PCR technology (PE Biosystems). This consists of hybridisation of the cDNA with a complementary reporter oligonucleotide (probe), containing a combined fluorescent dye and a quencher dye. Amplification of the DNA sequence containing the hybridised reporter probe, using flanking oligonucleotide primers will lead to the separation of the fluorescent dye from the quencher dye. This will result in an increase of the fluorescence during each amplification cycle.
The neomycin phosphotransferase gene sequence that is present in the replicon RNA was chosen for amplification using specifically designed oligonucleotide primers. To control for (a) cell number that can vary depending on the toxicity or cytostatic effect of the small molecules, and (b) for errors during total RNA extraction, amplification of the host β-actin gene is used for normalisation.
The accumulation of the PCR products during the reaction is monitored directly by measuring the increase in fluorescence of the reporter dye. The amount of HCV replicon RNA (and β-actin RNA) originally present in the total RNA extracted from the cells is then expressed as a threshold cycle, e.g. the cycle at which there is a statistically significant increase in the fluorescence above the background.
For this procedure, HCV replicon-containing human hepatoma Huh7 cells (9-13) in growth medium (DMEM) containing 5% FCS are plated in a 96-well plate at 5×10^3 cells per well, and the plate incubated overnight. 24 hours later, different dilutions in 0.1 ml growth medium of chemical compounds were added to the wells, and the plate further incubated at 37° C. for three days. Total RNA coming from each well is extracted using the RNeasy™ procedure (Qiagen manufacturer instructions), and the total RNA is eluted in a final volume of 0.13 ml. Next, a 2 μl sample of the total RNA is used for convertion into cDNA using a reverse transcription (RT) step. A RT mastermix containing 1 μl 10× Taqman RT buffer, 2.2 μl 25 mM MgCl2 (5.5 mM final conc.), 2 μl dNTP mix (500 μM each), 0.5 μl random hexamer primers (2.5 μM), 0.2 μl RNase inhibitor (0.4 u/μl ), 0.25 μl RT (1.25 u/μl ), 1.85 μl H2O, was distributed in a 96-well plate and 2 μl total RNA was added to each well.
The RT reaction is performed by incubation of the plate 10 min at 25° C., 30 min at 48° C., 5 min at 95° C. and cooling to 4° C. The cDNA samples are then stored at −20° C. or directly used for the PCR reaction. […]

[2] = HCV replicon-containing human hepatoma Huh7 cells (9-13), three days incubation, concentration reducing replicon RNA levels by 50%, read-out: IC50

SMILES	melting point	other results
OC[C@H]1O[C@@H](n2cnc3c(N4CCc5ccccc5C4)ncnc32)[C@H](O)[C@@H]1O [Example 57, 9-(β-D-Ribofuranosyl)-6-(1,2,3,4-tetrahydro-2-isoquinolyl)purine]	–	IC50 [1, 2]: 0.1 µM
Nc1ncnc2c1nc(NCCc1ccc(O)cc1)n2[C@@H]1O[C@H](CO)[C@@H](O)[C@H]1O	262 to 265 °C (dec.)	–
CN(CCc1ccccc1)c1nc2c(N)ncnc2n1[C@@H]1O[C@H](CO)[C@@H](O)[C@H]1O	118 to 120 °C	–
Nc1ncnc2c1nc(N1CCN(c3ccccc3)CC1)n2[C@@H]1O[C@H](CO)[C@@H](O)[C@H]1O	220 to 223 °C (dec.)	–
OC[C@H]1O[C@@H](n2cnc3c(-n4cccn4)ncnc32)[C@H](O)[C@@H]1O [Example 113, 6-(1-Pyrazolyl)-9-(β-D-ribofuranosyl)purine]	–	IC50 [1, 2]: 4.4 µM
Nc1ncnc2c1nc(NCCc1c[nH]cn1)n2[C@@H]1O[C@H](CO)[C@@H](O)[C@H]1O	148 to 156 °C (dec.)	–
OC[C@H]1O[C@@H](n2cnc3c(Cl)ncnc32)[C@H](O)[C@@H]1O [Example 19, 6-Chloro-9-(β-D-ribofuranosyl)purine]	–	IC50 [1]: 14 µM
CSc1ncnc2c1ncn2[C@@H]1O[C@H](CO)[C@@H](O)[C@H]1O [Example 16, 6-Methylthio-9-(β-D-ribofuranosyl)purine]	–	IC50 [1, 2]: 0.08 µM
Nc1ncnc2c1nc(NCc1ccccc1)n2[C@H]1C[C@H](O)[C@@H](CO)O1	132 to 134 °C	–
Nc1ncnc2c1nc(N1CCOCC1)n2[C@@H]1O[C@H](CO)[C@@H](O)[C@H]1O	210 to 213 °C	–
Nc1ncnc2c1nc(N1CCCCC1)n2[C@@H]1O[C@H](CO)[C@@H](O)[C@H]1O	207 to 209 °C (dec.)	–
Nc1ncnc2c1nc(NCCc1ccc(Cl)cc1Cl)n2[C@@H]1O[C@H](CO)[C@@H](O)[C@H]1O	164 to 168 °C (dec.)	–
Nc1ncnc2c1nc(NCCCCCCc1ccccc1)n2[C@H]1C[C@H](O)[C@@H](CO)O1	159 to 161 °C	–
O=c1[nH]c(=O)n([C@@H]2O[C@H](CO)[C@@H](O)[C@H]2O)cc1F [Example 24, 5-Fluorouridine]	–	IC50 [1, 2]: 1.4 µM
Cn1cccc1CCNc1nc2c(N)ncnc2n1[C@@H]1O[C@H](CO)[C@@H](O)[C@H]1O	225 to 228 °C	–
O=c1ccn([C@@H]2O[C@H](CO)[C@@H](O)[C@H]2Br)c(=O)[nH]1	194 to 195 °C	–
CN(C)c1ncnc2c1ncn2[C@@H]1O[C@H](CO)[C@@H](O)[C@H]1O [Example 1, 6-Dimethylamino-9-(β-D-ribofuranosyl)purine]	–	IC50 [1, 2]: 0.6 µM
Nc1ncnc2c1nc(NCCCc1ccccc1)n2[C@@H]1O[C@H](CO)[C@@H](O)[C@H]1O	180 to 183 °C	–
Nc1ncnc2c1nc(NCc1cccc3ccccc13)n2[C@@H]1O[C@H](CO)[C@@H](O)[C@H]1O	140 to 150 °C	–
OC[C@@H]1C[C@@H](O)[C@H](n2cnc3c(-n4cccc4)ncnc32)O1	175 to 176 °C	–
Nc1ncnc2c1nc(NCCc1ccc(Cl)cc1)n2[C@@H]1O[C@H](CO)[C@@H](O)[C@H]1O	155 to 158 °C (dec.)	–
Nc1ncnc2c1nc(NCCCCCCc1ccccc1)n2[C@@H]1O[C@H](CO)[C@@H](O)[C@H]1O	165 to 167 °C	–
Nc1ncnc2c1nc(Br)n2[C@@H]1O[C@H](CO)[C@@H](O)[C@H]1O [Example 10, 8-Bromoadenosine]	–	IC50 [1]: 3.6 µM
Nc1ncnc2c1nc(NCCc1ccccc1)n2[C@H]1C[C@H](O)[C@@H](CO)O1	192 to 195 °C	–
Nc1ncnc2c1nc(NCCCCc1ccccc1)n2[C@@H]1O[C@H](CO)[C@@H](O)[C@H]1O	190 °C	–
OC[C@@H]1O[C@H](n2cnc3c(-n4cccc4)ncnc32)[C@@H](O)[C@H]1O	114 to 115 °C	–

SMILES	melting point	other results
Nc1ncnc2c1nc(NCCCc1ccccc1)n2[C@H]1C[C@H](O)[C@@H](CO)O1	198 to 201 °C	–
Nc1ncnc2c1nc(NCCC1CCCCC1)n2[C@@H]1O[C@H](CO)[C@@H](O)[C@H]1O	203 to 205 °C	–
Nc1ncnc2c1nc(NCc1cccnc1)n2[C@@H]1O[C@H](CO)[C@@H](O)[C@H]1O	235 to 237 °C (dec.)	–
OC[C@H]1O[C@@H](n2cnc3c(-n4cncn4)ncnc32)[C@H](O)[C@@H]1O [Example 112, 9-(β-D-Ribofuranosyl)-6-(1,2,4-triazol-1-yl)purine]	–	IC50 [1, 2]: 4.4 µM
OC[C@H]1O[C@@H](n2cnc3c(-n4cccc4)ncnc32)[C@H](O)[C@@H]1O [Example 105, 6-(1-Pyrrolyl)-9-(β-D-ribofuranosyl)purine]	–	IC50 [1, 2]: 0.1 µM
Nc1ncnc2c1nc(NCCN1CCOCC1)n2[C@@H]1O[C@H](CO)[C@@H](O)[C@H]1O	210 to 215 °C	–
C#CCNc1ncnc2c1ncn2[C@@H]1O[C@H](CO)[C@@H](O)[C@H]1O [Example 81, 6-(2-Propynyl)amino-9-(β-D-ribofuranosyl)purine]	–	IC50 [1, 2]: 3.8 µM
Nc1ncnc2c1nc(N1CCc3ccccc3C1)n2[C@@H]1O[C@H](CO)[C@@H](O)[C@H]1O	145 to 150 °C (dec.)	–
C=CCNc1nc2c(N)ncnc2n1[C@@H]1O[C@H](CO)[C@@H](O)[C@H]1O	234 to 237 °C (dec.)	–
Cc1ccc(CCNc2nc3c(N)ncnc3n2[C@@H]2O[C@H](CO)[C@@H](O)[C@H]2O)cc1	117 to 124 °C (dec.)	–
Nc1ncnc2c1nc(NCCCCc1ccccc1)n2[C@H]1C[C@H](O)[C@@H](CO)O1	168 to 171 °C	–
N=c1c2ncn([C@@H]3O[C@H](CO)[C@@H](O)[C@H]3O)c2ncn1Cc1ccccc1 [Example 93, 1-Benzyl-6-imino-9-(β-D-ribofuranosyl)purine]	–	IC50 [1, 2]: 4.5 µM
Nc1ccn([C@@H]2C[C@H](CO)[C@@H](O)C2(F)F)c(=O)n1 [Example 245, 1-[1(R)-2,2-difluoro-3(R)-hydroxy-4(R)-(hydroxymethyl)cyclopentyl]-4-amino-1H-pyrimindin-2-one]	–	IC50 [1, 2]: 2 µM
OC[C@H]1O[C@@H](n2cnc3c(-n4ccnc4)ncnc32)[C@H](O)[C@@H]1O [Example 111, 6-(1-Imidazolyl)-9-(β-D-ribofuranosyl)purine]	–	IC50 [1, 2]: 6.2 µM
C=CCNc1ncnc2c1ncn2[C@@H]1O[C@H](CO)[C@@H](O)[C@H]1O [Example 80, 6-(2-Propenyl)amino-9-(β-D-ribofuranosyl)purine]	–	IC50 [1]: 5.7 µM
O=c1ccn([C@@H]2O[C@H](CO)[C@@H](O)[C@H]2Cl)c(=O)[nH]1	206 to 207 °C	–
O=c1[nH]/c(=N/O)ccn1[C@@H]1O[C@H](CO)[C@@H](O)[C@H]1O [Example 239, 4-oximino-1-(β-D-ribofuranosyl)pyrimidin-2(1H)-one]	–	IC50 [1, 2]: 1.3 µM
Nc1ccn([C@@H]2O[C@H](CO)[C@@H](O)C2(F)F)c(=O)n1 [Example 243, 1-(2-deoxy-2,2-difluoro-β-D-erythropentofuranosyl)cytosine]	–	IC50 [1, 2]: 0.07 µM
Nc1ccn([C@H]2O[C@@H](CO)[C@H](O)[C@@H]2O)c(=O)n1 [Example 244, L-cytidine]	–	IC50 [1, 2]: 10 µM
Nc1c2ncn([C@@H]3O[C@H](CO)[C@@H](O)[C@H]3O)c2nc[n+]1[O-] [Example 7, Adenosine-1-oxide]	–	IC50 [1, 2]: 2 µM
Nc1nc(-c2ccccc2)c2ncn([C@@H]3O[C@H](CO)[C@@H](O)[C@H]3O)c2n1	187 to 190 °C	–
OC[C@H]1O[C@@H](n2cnc3c(-n4cccc4)ncnc32)[C@@H](O)[C@@H]1O	212 to 213 °C	–
CCc1cn([C@@H]2O[C@H](CO)[C@@H](O)[C@H]2O)c(=O)[nH]c1=O	180 to 181 °C	–
Nc1ncnc2c1nc(NCCc1ccc(S(N)(=O)=O)cc1)n2[C@@H]1O[C@H](CO)[C@@H](O)[C@H]1O	157 to 163 °C (dec.)	–
OC[C@H]1O[C@@H](n2cnc3c(N4CCCC4)nc(Cl)nc32)[C@H](O)[C@@H]1O	229 °C	–
